{"source": "patent US20100190805A1", "about": "“PREPARATION FOR THE TREATMENT OF EQUINE LAMINITIS” (BOEHRINGER INGELHEIM VETMEDICA GMBH, priority 2007, published 2010)", "key": {"[1]": {"tested_on": "horses suffering from acute laminitis", "assay": "Treatment of horses suffering from laminitis with allopurinol (case reports)", "format": "in vivo, horse", "settings": "oral allopurinol 1 to 50 mg/kg of body weight", "from_the_text": "Thus there are also positive effects on the general condition. […] Only by treating with allopurinol is it possible to carry out this treatment as horses suffering acute pain cannot be fitted with supports."}, "[2]": {"settings": "horses, cited from earlier work"}}, "data": [{"smiles": "Oc1ncnc2[nH]ncc12", "note": "[allopurinol]", "values": [{"measurement": "appetite / general condition", "setting": "[1]", "value": "appetite returns"}, {"measurement": "inflammation", "setting": "[1]", "value": "decline after three days' treatment"}, {"measurement": "lameness", "setting": "[1]", "value": "reduced"}, {"measurement": "pain", "setting": "[1]", "value": "decline after three days' treatment"}, {"measurement": "time until horses can be fitted with an orthopaedic hoof support", "setting": "[1]; time after the start of treatment", "value": "roughly one week after the start of treatment"}, {"measurement": "bioavailability after oral administration", "setting": "[2]; oral administration", "value": 14.3, "unit": "%"}, {"measurement": "sum of the areas under the concentration/time curves of allopurinol and oxypurinol after oral administration of allopurinol", "setting": "[2]; oral versus intravenous allopurinol", "value": "identical to that of allopurinol administered intravenously"}]}]}
